Like-named read-outs stand apart in the source and are kept apart here.
What was measured:
HMGCR (TM1-8)-GFP [1] = target: T1, HMGCR (TM1-8)-GFP (Cricetulus griseus, UniProt P00347); experiment: HMGCR (TM1-8)-GFP fluorescent assay (high-content imaging) in CHG cells; details: for effect on HMGCR (TM1-8)-GFP intensity: CHG cells
T1 sequence (P00347 1-346): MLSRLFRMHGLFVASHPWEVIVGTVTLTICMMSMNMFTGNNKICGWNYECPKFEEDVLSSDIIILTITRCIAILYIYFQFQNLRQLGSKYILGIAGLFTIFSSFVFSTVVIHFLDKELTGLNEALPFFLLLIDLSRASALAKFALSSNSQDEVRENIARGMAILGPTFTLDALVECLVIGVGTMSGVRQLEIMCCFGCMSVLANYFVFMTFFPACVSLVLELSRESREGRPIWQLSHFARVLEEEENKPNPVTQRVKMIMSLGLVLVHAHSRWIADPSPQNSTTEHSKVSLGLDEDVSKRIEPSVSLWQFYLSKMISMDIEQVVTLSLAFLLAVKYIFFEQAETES

HMGCR (TM1-8)-GFP [2] = target: T1, HMGCR (TM1-8)-GFP
[3] = 16 h, read-out: HMGCR (TM1-8)-GFP fluorescent intensity, mean
[4] = read-out: Mean (HMGCR (TM1-8)-GFP signal relative to 0 μM = 100)

| SMILES | remaining activity at 0.1 µM (HMGCR (TM1-8)-GFP [1]; [3]) [%] | remaining activity at 0.3 µM (HMGCR (TM1-8)-GFP [1]; [3]) [%] | remaining activity at 1 µM (HMGCR (TM1-8)-GFP [1]; [3]) [%] | remaining activity at 3 µM (HMGCR (TM1-8)-GFP [1]; [3]) [%] | remaining activity at 10 µM (HMGCR (TM1-8)-GFP [1]; [3]) [%] | remaining activity at 20 µM (HMGCR (TM1-8)-GFP [1]; [3]) [%] | remaining activity at 30 µM (HMGCR (TM1-8)-GFP [1]; [3]) [%] | effect on HMGCR (TM1-8)-GFP intensity (HMGCR (TM1-8)-GFP [1]; 16 h) | DC50 (HMGCR (TM1-8)-GFP [2]) [µM] | remaining activity at 0.01 µM (HMGCR (TM1-8)-GFP [1]; [3]) [%] | remaining activity at 0.156 µM (HMGCR (TM1-8)-GFP [1]; [4]) [%] | remaining activity at 0.313 µM (HMGCR (TM1-8)-GFP [1]; [4]) [%] | remaining activity at 0.625 µM (HMGCR (TM1-8)-GFP [1]; [4]) [%] | remaining activity at 1.25 µM (HMGCR (TM1-8)-GFP [1]; [4]) [%] | remaining activity at 2.5 µM (HMGCR (TM1-8)-GFP [1]; [4]) [%] | remaining activity at 5 µM (HMGCR (TM1-8)-GFP [1]; [4]) [%] | remaining activity at 10 µM (HMGCR (TM1-8)-GFP [1]; [4]) [%] |
| --- | --- | --- | --- | --- | --- | --- | --- | --- | --- | --- | --- | --- | --- | --- | --- | --- | --- |
| CCC1(CC)C2=CCC3C(CC[C@@]4(C)C3CC[C@@H]4[C@H](C)CCCC(C)C)[C@@]2(C)CC[C@@H]1O (stereo partly shown) [Compound 8] | 90.5 | 79.5 | 82.7 | 83.2 | 89.3 | 91.4 | 93.9 | did not decrease the HMGCR (TM1-8)-GFP intensity | – | – | – | – | – | – | – | – | – |
| CC(C)CCC[C@@H](C)[C@H]1CC[C@H]2[C@@H]3CC=C4C(C)(C)[C@@H](O)CC[C@]4(C)[C@H]3CC[C@]12C [Compound 7, 4,4-Dimethyl cholesterol] | 104 | 92.8 | 83.5 | 71.9 | 56.7 | 47.9 | 35.9 | – | 14.6 | 101 | – | – | – | – | – | – | – |
| CCC(O)CCC[C@@H](C)C1CCC2C3C(CC[C@@]21C)[C@@]1(C)CC[C@H](O)C(C)(C)C1=C[C@@H]3O (stereo partly shown) [Compound 87] | – | – | – | – | – | – | – | – | 1.08 | – | 91.3 | 78.3 | 62.1 | 43.1 | 26.7 | 20.1 | 18.9 |
| CC(O)CCCCC[C@@H](C)C1CCC2C3C(CC[C@@]21C)[C@@]1(C)CC[C@H](O)C(C)(C)C1=C[C@@H]3O (stereo partly shown) [Compound 124] | – | – | – | – | – | – | – | – | 0.92 | – | 88 | 78.3 | 62.2 | 38.2 | 19.5 | 14.7 | 21.8 |
| CCC(O)(CC)CC[C@@H](C)C1CCC2C3C(CC[C@@]21C)[C@@]1(C)CC[C@H](O)C(C)(C)C1=C[C@@H]3O (stereo partly shown) [Compound 57] | – | – | – | – | – | – | – | – | 1.75 | – | 96.7 | 90.2 | 75.6 | 53.1 | 36.2 | 26 | 23.7 |
| C=CCC(O)(CC=C)CCCCC[C@@H](C)C1CCC2C3C(CC[C@@]21C)[C@@]1(C)CC[C@H](O)C(C)(C)C1=C[C@@H]3O (stereo partly shown) [Compound 119] | – | – | – | – | – | – | – | – | 4.13 | – | 92.9 | 96 | 91.6 | 81.1 | 62.7 | 42.5 | 28.9 |
| CCC(O)(CC)CCCCC[C@@H](C)C1CCC2C3C(CC[C@@]21C)[C@@]1(C)CC[C@H](O)C(C)(C)C1=C[C@@H]3O (stereo partly shown) [Compound 118] | – | – | – | – | – | – | – | – | 0.97 | – | 93.8 | 76.6 | 55.5 | 38.3 | 26.4 | 20.4 | 21.8 |
| C=CCC1(CC=C)C2=CCC3C(CC[C@@]4(C)C3CC[C@@H]4[C@H](C)CCCC(C)C)[C@@]2(C)CC[C@@H]1O (stereo partly shown) [Compound 9] | 95.3 | 92.7 | 80.9 | 90.8 | 93.7 | 88.7 | 90.8 | did not decrease the HMGCR (TM1-8)-GFP intensity | – | – | – | – | – | – | – | – | – |
| CC(C)CCC[C@@H](C)[C@H]1CCC2C3C(=O)C=C4C(C)(C)[C@@H](O)CC[C@]4(C)C3CC[C@@]21C (stereo partly shown) [Compound 33] | 93 | 97.3 | 94.4 | 96.3 | 95.2 | 85 | – | – | – | – | – | – | – | – | – | – | – |
| C[C@H](CCCC(C)(C)O)C1CCC2C3C(CC[C@@]21C)[C@@]1(C)CC[C@H](O)C(C)(C)C1=C[C@@H]3O (stereo partly shown) [Compound 79] | – | – | – | – | – | – | – | – | 0.64 | – | 87.9 | 77.2 | 59.3 | 38.6 | 23.5 | 16.1 | 12.2 |
| CC(C)CCC[C@@H](C)[C@H]1CCC2C3CC=C4C5(CCCCC5)[C@@H](O)CC[C@]4(C)C3CC[C@@]21C (stereo partly shown) [Compound 10] | 100 | 106 | 92.7 | 102 | 103 | 98.6 | 101 | did not decrease the HMGCR (TM1-8)-GFP intensity | – | – | – | – | – | – | – | – | – |
| COCCC1(CCOC)C2=CCC3C(CC[C@@]4(C)C3CC[C@@H]4[C@H](C)CCCC(C)C)[C@@]2(C)CC[C@@H]1O (stereo partly shown) [Compound 14] | 90.2 | 107 | 99.6 | 93.4 | 99.4 | 106 | 98.6 | did not decrease the HMGCR (TM1-8)-GFP intensity | – | – | – | – | – | – | – | – | – |
| C[C@H](CCCCCO)C1CCC2C3C(CC[C@@]21C)[C@@]1(C)CC[C@H](O)C(C)(C)C1=C[C@@H]3O (stereo partly shown) [Compound 96] | – | – | – | – | – | – | – | – | 2.96 | – | – | – | – | – | – | – | – |
| CC(C)CCC[C@@H](C)[C@H]1CCC2C3C(CC[C@@]21C)[C@@]1(C)CC[C@H](O)C(C)(C)C1=C[C@H]3N (stereo partly shown) [Compound 19] | 90.2 | 107 | 99.6 | 93.4 | 99.4 | 106 | 99.6 | – | – | – | – | – | – | – | – | – | – |
| CC(C)CCC[C@@H](C)[C@H]1CCC2C3C(CC[C@@]21C)[C@@]1(C)CC[C@H](O)C(C)(C)C1=C[C@H]3N=[N+]=[N-] (stereo partly shown) [Compound 18] | 99.5 | 103 | 103 | 99.4 | 96.7 | 98.8 | 93 | – | – | – | – | – | – | – | – | – | – |
| C[C@H](CCC(=O)O)C1CCC2C3C(CC[C@@]21C)[C@@]1(C)CC[C@H](O)C(C)(C)C1=C[C@@H]3O (stereo partly shown) [Compound 50] | – | – | – | – | – | – | – | – | – | – | 98.8 | 106 | 105 | 105 | 103 | 100 | 98.3 |
| CCC1(CCOC)C2=CCC3C(CCC4(C)C(C(C)CCCC(C)C)CCC34)C2(C)CCC1O (stereo not shown) [Compound 11] | 90.8 | 97.1 | 100 | 91.7 | 93.3 | 97.4 | 95.4 | did not decrease the HMGCR (TM1-8)-GFP intensity | – | – | – | – | – | – | – | – | – |
| COCCCCC[C@@H](C)C1CCC2C3C(CC[C@@]21C)[C@@]1(C)CC[C@H](O)C(C)(C)C1=C[C@@H]3O (stereo partly shown) [Compound 95] | – | – | – | – | – | – | – | – | 2.34 | – | – | – | – | – | – | – | – |
| CC(=O)N[C@@H]1C=C2C(C)(C)[C@@H](O)CC[C@]2(C)C2CC[C@@]3(C)C(CC[C@@H]3[C@H](C)CCCC(C)C)C21 (stereo partly shown) [Compound 22] | 97.3 | 91.4 | 89.7 | 101 | 97.5 | 97.9 | 93.5 | – | – | – | – | – | – | – | – | – | – |

— paper PMC6277434, “Discovery of a potent HMG-CoA reductase degrader that eliminates statin-induced reductase accumulation and lowers cholesterol” (Nature Communications, 2018)
